Experimental findings from patent US20250197406A1, “INDAZOLES AS HEMATOPOIETIC PROGENITOR KINASE 1 (HPK1) INHIBITORS AND METHODS FOR USING SAME” (1ST Biotherapeutics, Inc., priority 2022, published 2025) are described below.

The test concerns the target recombinant human HPK1 (Homo sapiens (Human), UniProt Q92918). The test is described as follows: HPK1 kinase assay (Promega ADP-Glo kinase assay). Format: biochemical. The following applies: In vitro activity against HPK1, 5 ng HPK1, MBP substrate, ATP 25 μM, 30° C. 40 minutes. The method in brief:
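ADP-Glo luminescence assay with 5 ng recombinant human HPK1, MBP substrate and ATP (added as 25 µM solution) in Tris pH 7.5, 20 mM MgCl2, BSA, DTT, 0.5% DMSO. Reaction ran 40 min at 30 °C. IC50 was fitted from percent inhibition over an inhibitor concentration range.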
On the technique in general: ADP-Glo first removes unused ATP, then detects ADP through luciferase.

Some results are limits rather than exact numbers.

In general, IC50 refers to the concentration at which inhibition is half-maximal.

Chain of recombinant human HPK1 (Q92918 whole entry): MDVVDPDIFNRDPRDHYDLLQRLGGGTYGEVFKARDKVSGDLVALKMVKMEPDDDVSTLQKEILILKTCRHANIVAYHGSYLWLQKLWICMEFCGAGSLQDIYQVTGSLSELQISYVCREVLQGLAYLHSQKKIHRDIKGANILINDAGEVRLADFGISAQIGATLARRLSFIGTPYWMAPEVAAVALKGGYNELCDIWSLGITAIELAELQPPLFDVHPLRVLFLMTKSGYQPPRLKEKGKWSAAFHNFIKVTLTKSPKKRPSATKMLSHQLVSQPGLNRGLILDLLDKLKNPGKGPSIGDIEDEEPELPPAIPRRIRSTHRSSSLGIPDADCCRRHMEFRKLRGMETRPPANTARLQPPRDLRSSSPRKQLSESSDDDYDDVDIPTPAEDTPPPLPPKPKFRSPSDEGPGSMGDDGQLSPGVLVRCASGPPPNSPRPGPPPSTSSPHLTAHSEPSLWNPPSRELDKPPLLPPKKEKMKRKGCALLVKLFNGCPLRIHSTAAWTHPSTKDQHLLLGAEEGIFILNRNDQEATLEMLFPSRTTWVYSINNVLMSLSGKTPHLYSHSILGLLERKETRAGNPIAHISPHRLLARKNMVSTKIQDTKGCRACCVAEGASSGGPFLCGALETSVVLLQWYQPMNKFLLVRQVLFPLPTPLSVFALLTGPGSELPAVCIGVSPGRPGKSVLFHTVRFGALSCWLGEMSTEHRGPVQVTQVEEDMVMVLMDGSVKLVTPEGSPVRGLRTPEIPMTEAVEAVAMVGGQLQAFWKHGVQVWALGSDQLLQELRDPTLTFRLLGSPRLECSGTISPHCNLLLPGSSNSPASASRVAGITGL

On to `Cc1c(F)c(NC(C)C)c2[nH]ncc2c1-c1cn2cc(NC(=O)[C@H]3C[C@@H]3F)nc2cn1` [Example 35, (1R,2S)-2-fluoro-N-(6-(6-fluoro-7-(isopropylamino)-5-methyl-1H-indazol-4-yl)imidazo[1,2-a]pyrazin-2-yl)cyclopropane-1-carboxamide], for which the IC50 was under 100 nM.

For `Cc1c(F)c(C(C)N(C)C)c2[nH]ncc2c1-c1cn2cc(NC(=O)[C@@H]3C[C@@H]3F)nc2cn1` (stereo partly drawn) [Example 12, (1S,2S)-N-(6-(7-(1-(dimethylamino)ethyl)-6-fluoro-5-methyl-1H-indazol-4-yl)imidazo[1,2-a]pyrazin-2-yl)-2-fluorocyclopropane-1-carboxamide], the IC50 lay within 501 to 1000 nM.

Turning to `CC(=O)NC(C)c1c(F)c(C(F)F)c(-c2cn3cc(NC(=O)[C@@H]4C[C@@H]4F)nc3cn2)c2cn[nH]c12` (stereo partly drawn) [Example 53, (1S,2S)-N-(6-(7-(1-acetamidoethyl)-5-(difluoromethyl)-6-fluoro-1H-indazol-4-yl)imidazo[1,2-a]pyrazin-2-yl)-2-fluorocyclopropane-1-carboxamide], the IC50 was under 100 nM.

As to `CCNC(=O)Nc1cn2cc(-c3c(Cl)c(F)c(NC(C)C)c4[nH]ncc34)ncc2n1` [Example 119, 1-(6-(5-chloro-6-fluoro-7-(isopropylamino)-1H-indazol-4-yl)imidazo[1,2-a]pyrazin-2-yl)-3-ethylurea], the IC50 is under 100 nM.

As for `CC(C)Nc1c(F)c(Cl)c(-c2cn3cc(NC(=O)C(C)(C)C)nc3cn2)c2cn[nH]c12` [Example 82, N-(6-(5-chloro-6-fluoro-7-(isopropylamino)-1H-indazol-4-yl)imidazo[1,2-a]pyrazin-2-yl)pivalamide], the IC50 was in the range of 101 to 500 nM.

With `CC(=O)Nc1cn2cc(-c3c(C(F)F)c(F)c(NC(C)C)c4[nH]ncc34)ncc2n1` [Example 153, N-(6-(5-(difluoromethyl)-6-fluoro-7-(isopropylamino)-1H-indazol-4-yl)imidazo[1,2-a]pyrazin-2-yl)acetamide], the IC50 was under 100 nM.

Regarding `O=C(Nc1cn2cc(-c3c(C(F)F)c(F)c(C(O)C4CC4)c4[nH]ncc34)ncc2n1)[C@@H]1C[C@@H]1F` (stereo partly drawn) [Example 19, (1S,2S)-N-(6-(7-(cyclopropyl(hydroxy)methyl)-5-(difluoromethyl)-6-fluoro-1H-indazol-4-yl)imidazo[1,2-a]pyrazin-2-yl)-2-fluorocyclopropane-1-carboxamide], the IC50 was under 100 nM.

Regarding `COC(=O)[C@H]1C[C@H]1C(=O)Nc1cn2cc(-c3c(Cl)c(F)c(NC(C)C)c4[nH]ncc34)ncc2n1` [Example 32, methyl (1S,2R)-2-((6-(5-chloro-6-fluoro-7-(isopropylamino)-1H-indazol-4-yl)imidazo[1,2-a]pyrazin-2-yl)carbamoyl)cyclopropane-1-carboxylate], the IC50 was under 100 nM.

For `CC(C)Nc1c(F)c(Cl)c(-c2cn3cc(NC(=O)CN4CCOCC4)nc3cn2)c2cn[nH]c12` [Example 90, N-(6-(5-chloro-6-fluoro-7-(isopropylamino)-1H-indazol-4-yl)imidazo[1,2-a]pyrazin-2-yl)-2-morpholinoacetamide], the IC50 is under 100 nM.

Take `CC(C)Nc1c(F)c(Cl)c(-c2cn3cc(NC(=O)N4CCCC4)nc3cn2)c2cn[nH]c12` [Example 124, N-(6-(5-chloro-6-fluoro-7-(isopropylamino)-1H-indazol-4-yl)imidazo[1,2-a]pyrazin-2-yl)pyrrolidine-1-carboxamide]: the IC50 is under 100 nM.

Take `Cc1c(F)c(C(C)N2C(=O)c3ccccc3C2=O)c2[nH]ncc2c1-c1cn2cc(NC(=O)[C@@H]3C[C@@H]3F)nc2cn1` (stereo partly drawn) [Example 68, (1S,2S)-N-(6-(7-(1-(1,3-dioxoisoindolin-2-yl)ethyl)-6-fluoro-5-methyl-1H-indazol-4-yl)imidazo[1,2-a]pyrazin-2-yl)-2-fluorocyclopropane-1-carboxamide]: the IC50 lay within 101 to 500 nM.
